Experimental data taken from patent publication US8343475B2, “Small cationic antimicrobial peptides” (priority 2006, dated 2013).
Converted amounts (≈) assume the structure as drawn. Residues, ends and D or L forms follow the SMILES beside them.

Tests used:
[1] = system: CXCL1 (Gro-α) release by human PBMC; experiment: Chemokine induction in PBMC (capture ELISA); type: cell-based; details: background (196) subtracted
Outline: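 Human PBMC from healthy donors' heparinised blood (Ficoll), 7.5×10^5 cells treated with 20 or 100 μg/ml peptide for 24 h at 37° C, 5% CO2. Cell-free supernatants assayed for CXCL1 by capture ELISA.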

ESBL E. cloacae = type: cell-based, Enterobacter cloacae
Method: (§1) Minimal inhibitory concentration (MIC) determination. The MIC of the peptides were measured using a modified broth microdilution method in Mueller Hinton (MH) medium (Wu M, Hancock R E W. 1999. Interaction of the cyclic antimicrobial cationic peptide bactenecin with the outer and cytoplasmic membrane. J Biol Chem 274, 29-35). Briefly, the peptides were dissolved and stored in glass vials. The assay was performed in sterile 96-well polypropylene microtitre plates were used. Serial dilutions of the peptides to be assayed were performed in 0.01% acetic acid (Fisher) containing 0.2% bovine serum albumin (Boehringer Mannheim GmbH) at 10× the desired final concentration. Ten microlitres of the 10× peptides were added to each well of a 96-well polypropylene plate containing 90 μl of MH media per well. Bacteria were added to the plate from an overnight culture at 2-7×10^5 colony forming units/ml and incubated over night at 37° C. The MIC was taken as the concentration at which no growth was observed.
(§2) All peptides derived from the 1st, 2nd, and 3rd quartiles were further evaluated for their antibacterial activities against several highly antibitoic resistant pathogens (Table 3). These included clinical isolates of MRSA, ESBL E. cloacae, and multidrug resistant Pseudomonas strains including Brazilian clinical isolates of P. aeruginosa that are resistant to meropenem, ceftazidime, piperacillin/tazobactam, ciprofloxacin, cefepime and polymyxin B, and the Liverpool Epidemic Strains. […] Such results characterize the developed peptides as excellent antibiotic candidates, providing new means for treating most dangerous and severe forms of human infections.

[2] = system: ESBL E. coli clinical strain 64771; type: cell-based; details: ESBL clinical strain 64771
Method: as §1
(§3) The selected peptides were synthesized and assayed against several major antibiotic-resistant pathogens. Initially, the peptides were screened against the laboratory strain of P. aeruginosa PAO1 to compare the results with the training data. […] The antibacterial activity in the form of minimal inhibitory concentration (MIC) of the other studied peptides was assessed in greater depth (Table 9) against many highly antibiotic resistanct pathogens.

[3] = system: multidrug resistant Pseudomonas maltophilia ATCC13637; type: cell-based
Method: as §1, §3

[4] = system: ESBL Klebsiella pneumonia clinical strain 63575; type: cell-based
Method: as §1, §3

[5] = system: MCP-1 release by human PBMC; experiment: Chemokine induction in PBMC (capture ELISA); type: cell-based; details: background (204) subtracted
Outline: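 Heparinized blood from healthy volunteers; Ficoll-isolated human PBMC (7.5×10^5) treated with peptides at 20 or 100 μg/ml for 24 hours at 37° C, 5% CO2. Cell-free supernatants assayed for MCP-1 by capture ELISA.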

[6] = system: MCP-3 release by human PBMC; experiment: Chemokine induction in PBMC (capture ELISA); type: cell-based; details: background (6) subtracted
Outline: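 Human PBMC from healthy donors (Ficoll-isolated), 7.5×10^5 cells at 0.75–1×10^6 cells/ml, treated with peptides at 20 or 100 μg/ml for 24 h at 37° C, 5% CO2. MCP-3 in cell-free supernatants measured by capture ELISA.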

[7] = system: clinical isolates of MRSA; type: cell-based, Staphylococcus aureus
Method: as §1, §2

[8] = system: Staphylococcus aureus ATCC25923; type: cell-based; details: ATCC25923
Outline: (§4)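 Broth microdilution in Mueller Hinton medium; peptides serially diluted at 10× in 0.01% acetic acid with 0.2% BSA, then added to polypropylene plates. Inoculum 2-7×10^5 CFU/ml from overnight culture, incubated overnight at 37° C. MIC = lowest concentration showing no growth.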

[9] = system: Enterococcus faecalis ATCC29212; type: cell-based; details: ATCC29212
Outline: as §4

[10] = system: Liverpool Epidemic Strains; type: cell-based, Pseudomonas aeruginosa
Method: as §1, §2

[11] = system: multidrug resistant Brazilian clinical isolates of P. aeruginosa; type: cell-based, Pseudomonas aeruginosa
Method: as §1, §2

[12] = system: Pseudomonas aeruginosa PAO1 strain H103; type: cell-based
Outline: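 Modified broth microdilution MIC in Mueller Hinton medium, peptides diluted in 0.01% acetic acid/0.2% BSA, polypropylene plates. Inoculum 2-7×10^5 CFU/ml, overnight at 37 °C; MIC is the lowest concentration with no visible growth.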

[13] = system: lab isolate of Candida albicans; type: cell-based; details: lab isolate of
Outline: as §4

Escherichia coli UB1005 = type: cell-based; details: UB1005
Outline: as §4

[14] = system: wild-type Salmonella enterica ssp. typhimurium; type: cell-based
Outline: as §4

[15] = system: clinical isolate of Staphylococcus epidermidis; type: cell-based; details: clinical isolate of
Outline: as §4

| Compound | Chemokine induction Gro-α ([1]; 20 μg/ml peptide) [pg/mL] | Chemokine induction Gro-α ([1]; 100 μg/ml peptide) [pg/mL] | MIC (ESBL E. cloacae) [µM] | MIC [2] [µM] | MIC [3] [µM] | MIC [4] [µM] | Chemokine induction MCP-1 ([5]; 20 μg/ml peptide) [pg/mL] | Chemokine induction MCP-1 ([5]; 100 μg/ml peptide) [pg/mL] | Chemokine induction MCP-3 ([6]; 20 μg/ml peptide) [pg/mL] | Chemokine induction MCP-3 ([6]; 100 μg/ml peptide) [pg/mL] | MIC [7] [µM] | MIC [8] [µM] | MIC [9] [µM] | MIC [10] [µM] | MIC [11] [µM] | MIC against P. aeruginosa PAO1 ([12]; PAO1) [µM] | further results |
| --- | --- | --- | --- | --- | --- | --- | --- | --- | --- | --- | --- | --- | --- | --- | --- | --- | --- |
| CC[C@H](C)[C@H](NC(=O)[C@H](CCCCN)NC(=O)[C@H](Cc1c[nH]c2ccccc12)NC(=O)[C@H](Cc1c[nH]c2ccccc12)NC(=O)[C@H](CCCNC(=N)N)NC(=O)[C@@H](N)Cc1c[nH]c2ccccc12)C(=O)N[C@@H](Cc1c[nH]c2ccccc12)C(=O)N[C@@H](CCCCN)C(=O)N[C@@H](CCCNC(=N)N)C(N)=O [HHC20, WRWWKIWKR] (H-WRWWKIWKR-NH2; N-terminus assumed) | 169 | 33 | 12 (≈ 17.3 µg/mL) | 6 (≈ 8.66 µg/mL) | 0.8 (≈ 1.16 µg/mL) | 24 (≈ 34.7 µg/mL) | 290 | 974 | 8 | 12 | 3 (≈ 4.33 µg/mL) | 3 (≈ 4.33 µg/mL) | 24 (≈ 34.7 µg/mL) | 1.5 (≈ 2.17 µg/mL) | 24 (≈ 34.7 µg/mL) |  |  |
| N=C(N)NCCC[C@H](NC(=O)[C@H](Cc1c[nH]c2ccccc12)NC(=O)[C@H](CCCCN)NC(=O)[C@H](CCCCN)NC(=O)[C@H](Cc1c[nH]c2ccccc12)NC(=O)[C@H](Cc1c[nH]c2ccccc12)NC(=O)[C@H](CCCNC(=N)N)NC(=O)[C@H](CCCCN)NC(=O)[C@@H](N)Cc1c[nH]c2ccccc12)C(N)=O [HHC45, WKRWWKKWR] (H-WKRWWKKWR-NH2; N-terminus assumed) | -15 | -32 | 93 (≈ 136 µg/mL) | 3 (≈ 4.38 µg/mL) | 1.4 (≈ 2.04 µg/mL) | 46 (≈ 67.1 µg/mL) | -9 | 161 | -2 | -2 | 6 (≈ 8.75 µg/mL) | 68 (≈ 99.2 µg/mL) | 93 (≈ 136 µg/mL) | 6 (≈ 8.75 µg/mL) | 46 (≈ 67.1 µg/mL) |  |  |
| CC[C@H](C)[C@H](NC(=O)[C@H](CCCNC(=N)N)NC(=O)[C@H](C)NC(=O)[C@H](CC(C)C)NC(=O)[C@@H](N)CCCNC(=N)N)C(=O)N[C@H](C(=O)N[C@H](C(=O)N[C@H](C(=O)N[C@@H](CCCNC(=N)N)C(=O)N[C@H](C(=O)N[C@@H](C)C(=O)N[C@@H](CCCNC(=N)N)C(N)=O)C(C)C)[C@@H](C)CC)C(C)C)C(C)C [Bac2A, RLARIVVIRVAR-NH2, reference compound] (H-RLARIVVIRVAR-NH2; N-terminus assumed) | 9 | 8 | 24 (≈ 34.1 µg/mL) | 24 (≈ 34.1 µg/mL) | 3 (≈ 4.26 µg/mL) | 192 (≈ 273 µg/mL) | 316 | 442 | 2 | 2 | 24 (≈ 34.1 µg/mL) | 24 (≈ 34.1 µg/mL) | 12 (≈ 17 µg/mL) | 12 (≈ 17 µg/mL) |  |  | MIC P. aerug ([12]; PAO1): 50 µg/mL (≈ 35.2 µM); MIC C. albicans [13]: 9 µg/mL (≈ 6.33 µM); MIC S. aureus [8]: 17 µg/mL (≈ 12 µM); MIC E. coli (Escherichia coli UB1005): 17 µg/mL (≈ 12 µM); MIC S. typhi [14]: 34 µg/mL (≈ 23.9 µM); MIC S. epi. [15]: 4 µg/mL (≈ 2.82 µM); MIC E. faecalis [9]: 17 µg/mL (≈ 12 µM) |
| CC[C@H](C)[C@H](N)C(=O)N[C@@H](Cc1c[nH]c2ccccc12)C(=O)N[C@@H](Cc1c[nH]c2ccccc12)C(=O)N[C@@H](CCCCN)C(=O)N[C@@H](Cc1c[nH]c2ccccc12)C(=O)N[C@@H](CCCNC(=N)N)C(=O)N[C@@H](CCCNC(=N)N)C(=O)N[C@@H](Cc1c[nH]c2ccccc12)C(=O)N[C@H](C(N)=O)C(C)C [HHC77, IWWKWRRWV] (H-IWWKWRRWV-NH2; N-terminus assumed) | -22 | 50 | 6 (≈ 8.49 µg/mL) | 6 (≈ 8.49 µg/mL) | 1.5 (≈ 2.12 µg/mL) | 12 (≈ 17 µg/mL) | 98 | 4548 | 0 | 23 | 3 (≈ 4.24 µg/mL) | 3 (≈ 4.24 µg/mL) | 24 (≈ 34 µg/mL) | 6 (≈ 8.49 µg/mL) |  | 4 to 12 |  |
| CC[C@H](C)[C@H](NC(=O)[C@H](Cc1ccccc1)NC(=O)[C@H](CCCCN)NC(=O)[C@H](Cc1ccccc1)NC(=O)[C@H](CCCNC(=N)N)NC(=O)[C@@H](N)CCCNC(=N)N)C(=O)N[C@@H](CCCNC(=N)N)C(=O)N[C@@H](Cc1c[nH]c2ccccc12)C(=O)N[C@@H](Cc1c[nH]c2ccccc12)C(N)=O [HHC100, RRFKFIRWW] (H-RRFKFIRWW-NH2; N-terminus assumed) | -18 | -43 | 12 (≈ 16.7 µg/mL) | 12 (≈ 16.7 µg/mL) | 0.8 (≈ 1.11 µg/mL) | 49 (≈ 68.3 µg/mL) | 179 | 197 | -1 | 0 | 6 (≈ 8.36 µg/mL) | 6 (≈ 8.36 µg/mL) | 12 (≈ 16.7 µg/mL) | 3 (≈ 4.18 µg/mL) |  | 4 to 12 |  |
| CC(C)[C@H](NC(=O)[C@H](CCCNC(=N)N)NC(=O)[C@H](CCCCN)NC(=O)[C@@H](NC(=O)[C@H](Cc1ccccc1)NC(=O)[C@H](CCCCN)NC(=O)[C@H](Cc1c[nH]c2ccccc12)NC(=O)[C@@H](NC(=O)[C@H](C)N)C(C)C)C(C)C)C(N)=O [HHC123, AVWKFVKRV] (H-AVWKFVKRV-NH2; N-terminus assumed) | -25 | 17 | >240 | 120 (≈ 136 µg/mL) | 60 (≈ 67.9 µg/mL) | >240 | 46 | 204 | 0 | 3 | 240 (≈ 272 µg/mL) | 240 (≈ 272 µg/mL) | >240 | 120 (≈ 136 µg/mL) |  |  | antimicrobial activity against P. aeruginosa PAO1 (in words) ([12]; laboratory strain P. aeruginosa PAO1): did not return any generally active substances |
